# From US10030020B2, “Spirocycle compounds and methods of making and using same” (Abide Therapeutics, Inc., priority 2016, dated 2018)
# Read-outs that look alike come from different tables or passages of the source.
# Columns and labels:
# MAGL [1] = target: MAGL (Homo sapiens (Human), UniProt Q99685); experiment: In vitro competitive activity-based protein profiling (human prefrontal cortex or cell membrane fractions; hMAGL expressed in HEK293T cells); type: biochemical
# How it was run: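 Human prefrontal cortex or cell membrane proteomes (1.0-2.0 mg/mL), or lysates of HEK293T cells expressing hMAGL diluted into mock proteome, preincubated with inhibitor 30 min at 37° C. FP-Rh or JW912 probe then added for 30 min at room temperature. Residual labeling resolved by SDS-PAGE.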
# ABHD6 [2] = target: T1, ABHD6 (Mus musculus (Mouse), UniProt Q8R2Y0); experiment: Mouse brain proteomes from inhibitor treated mice (oral gavage, sacrificed 4 h after administration, ABPP analysis), ABHD6; type: in vivo, mouse (C57Bl/6J); settings: 5 mg/kg oral gavage
# How it was run: (§1)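 Oral dosing of C57Bl/6J wild-type mice at 5 mg/kg, brain collection 4 h afterwards, then ABPP of brain proteomes to give % target inhibition.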
# FAAH [3] = target: T2, FAAH (Mus musculus (Mouse), UniProt O08914); experiment: In vitro competitive activity-based protein profiling (mouse brain membrane fraction or cell lysates), FAAH band; type: biochemical; settings: for inhibition at 1 µM: read-out: FAAH % Inh 1 μM (mouse)
# How it was run: (§2)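 Mouse proteome samples (brain membrane fraction or cell lysate, 1.0 mg/mL protein) were pretreated with varying inhibitor concentrations and subsequently probed with fluorophosphonate-rhodamine, each step lasting 30 min at 37° C. Labelled proteins were separated by SDS-PAGE, and band fluorescence was imaged and quantified.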
# MAGL [4] = target: T3, MAGL (Mus musculus (Mouse), UniProt O35678); experiment: In vitro competitive activity-based protein profiling (mouse brain membrane fraction or cell lysates), MAGL band; type: biochemical; settings: for inhibition at 1 µM: read-out: MAGL % Inh 1 μM (mouse)
# Description: In Vitro Competitive Activity-Based Protein Profiling.
# Proteomes (mouse brain membrane fraction or cell lysates) (50 μL, 1.0 mg/mL total protein concentration) were preincubated with varying concentrations of inhibitors at 37° C. After 30 min, FP—Rh (1.0 μL, 50 μM in DMSO) was added and the mixture was incubated for another 30 min at 37° C. Reactions were quenched with SDS loading buffer (50 μL-4×) and run on SDS-PAGE.
# ABHD6 [5] = target: T1, ABHD6; experiment: In vitro competitive activity-based protein profiling (mouse brain membrane fraction or cell lysates), ABHD6 band; type: biochemical; settings: for inhibition at 1 µM: read-out: ABHD6 % Inh 1 μM (mouse)
# How it was run: as §2
# FAAH [6] = target: T2, FAAH; experiment: Mouse brain proteomes from inhibitor treated mice (oral gavage, sacrificed 4 h after administration, ABPP analysis), FAAH; type: in vivo, mouse (C57Bl/6J); settings: 5 mg/kg oral gavage
# How it was run: as §1
# MAGL [7] = target: T3, MAGL; experiment: Mouse brain proteomes from inhibitor treated mice (oral gavage, sacrificed 4 h after administration, ABPP analysis); type: in vivo, mouse (C57Bl/6J); settings: 5 mg/kg oral gavage
# How it was run: as §1
# [8] = human proteome, competitive ABPP
# [9] = mouse proteome, competitive ABPP
# T3 sequence (O35678 whole entry): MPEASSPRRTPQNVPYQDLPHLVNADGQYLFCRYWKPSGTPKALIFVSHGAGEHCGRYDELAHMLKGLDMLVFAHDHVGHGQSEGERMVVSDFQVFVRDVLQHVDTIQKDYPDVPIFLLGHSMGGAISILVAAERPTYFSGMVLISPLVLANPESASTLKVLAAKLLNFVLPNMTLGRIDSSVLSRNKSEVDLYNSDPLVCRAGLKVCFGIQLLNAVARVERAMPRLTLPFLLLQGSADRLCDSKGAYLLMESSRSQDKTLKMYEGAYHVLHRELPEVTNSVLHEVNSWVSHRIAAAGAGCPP
# T2 sequence (O08914 whole entry): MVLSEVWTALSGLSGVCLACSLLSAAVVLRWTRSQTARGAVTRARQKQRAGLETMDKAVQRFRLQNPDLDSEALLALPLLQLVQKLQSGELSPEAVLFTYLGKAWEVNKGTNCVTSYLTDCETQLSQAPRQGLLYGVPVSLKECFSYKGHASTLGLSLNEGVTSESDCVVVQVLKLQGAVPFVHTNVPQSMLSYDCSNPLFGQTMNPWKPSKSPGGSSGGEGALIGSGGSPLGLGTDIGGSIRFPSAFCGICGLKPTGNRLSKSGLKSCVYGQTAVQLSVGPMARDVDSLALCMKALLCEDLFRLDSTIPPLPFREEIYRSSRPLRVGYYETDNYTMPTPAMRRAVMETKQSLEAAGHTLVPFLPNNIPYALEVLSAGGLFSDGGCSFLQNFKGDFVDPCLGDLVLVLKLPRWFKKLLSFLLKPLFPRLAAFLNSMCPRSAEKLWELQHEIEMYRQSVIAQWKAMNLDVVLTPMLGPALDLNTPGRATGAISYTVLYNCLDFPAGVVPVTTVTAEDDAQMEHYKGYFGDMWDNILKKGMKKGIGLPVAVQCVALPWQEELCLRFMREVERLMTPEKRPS
# Sequence of MAGL (Homo sapiens (Human), UniProt Q99685) (Q99685 whole entry): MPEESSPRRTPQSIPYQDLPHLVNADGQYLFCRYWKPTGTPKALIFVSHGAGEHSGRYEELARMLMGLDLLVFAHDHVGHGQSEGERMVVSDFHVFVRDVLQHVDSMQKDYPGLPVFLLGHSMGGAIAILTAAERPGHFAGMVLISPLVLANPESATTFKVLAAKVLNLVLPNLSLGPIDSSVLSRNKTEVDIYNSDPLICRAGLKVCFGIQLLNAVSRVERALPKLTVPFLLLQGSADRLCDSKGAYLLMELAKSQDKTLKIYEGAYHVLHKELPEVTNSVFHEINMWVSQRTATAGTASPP
# T1 sequence (Q8R2Y0 whole entry): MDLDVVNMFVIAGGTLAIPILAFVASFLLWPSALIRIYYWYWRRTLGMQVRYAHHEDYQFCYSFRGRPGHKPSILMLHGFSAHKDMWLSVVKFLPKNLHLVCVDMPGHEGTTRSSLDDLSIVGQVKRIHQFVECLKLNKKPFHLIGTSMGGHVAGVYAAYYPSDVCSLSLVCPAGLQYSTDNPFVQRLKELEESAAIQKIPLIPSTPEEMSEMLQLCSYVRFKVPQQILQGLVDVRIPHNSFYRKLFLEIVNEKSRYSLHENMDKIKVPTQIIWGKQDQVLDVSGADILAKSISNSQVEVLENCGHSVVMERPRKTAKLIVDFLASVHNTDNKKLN
Compound,IC50 (MAGL [1]; [8]),ABHD6 % Inh 5 mg/kg (mouse) (ABHD6 [2]),inhibition at 1 µM (FAAH [3]; mouse proteome),inhibition at 1 µM (MAGL [4]; mouse proteome),inhibition at 1 µM (ABHD6 [5]; mouse proteome),FAAH % Inh 5 mg/kg (mouse) (FAAH [6]),IC50 (FAAH [3]; [9]),IC50 (MAGL [4]; [9]),IC50 (ABHD6 [5]; [9]),IC50 (MAGL [1]; human),inhibition at 1 µM (FAAH [3]; mouse),inhibition at 1 µM (MAGL [4]; mouse),inhibition at 1 µM (ABHD6 [5]; mouse),MAGL % Inh 5 mg/kg (mouse) (MAGL [7])
O=C(O)[C@@H]1CCCN(c2cc(C(F)(F)F)ccc2CN2CCCC23CCN(C(=O)OC(C(F)(F)F)C(F)(F)F)CC3)C1 [Example 214],< 100 nM,# (# is <25%),< 25%,> 75%,< 25%,# (# is <25%),–,–,–,–,–,–,–,### (### is ≥75%)
CC1(C(=O)O)CCN(c2cc(C(F)(F)F)ccc2CN2CCCC23CCN(C(=O)OC(C(F)(F)F)C(F)(F)F)CC3)C1 (centres unmarked) [Example 230],–,# (# is <25%),–,–,–,# (# is <25%),–,–,–,< 100 nM,< 25%,> 75%,< 25%,## (## is equal to or greater than 25% but less than 75%)
O=C(O)[C@@H]1CCCN(c2cc(C(F)(F)F)ccc2CN2CCC3(CCN(C(=O)OC(C(F)(F)F)C(F)(F)F)CC3)C2)C1 [Example 211],< 100 nM,# (# is <25%),< 25%,> 75%,< 25%,# (# is <25%),–,–,–,–,–,–,–,## (## is equal to or greater than 25% but less than 75%)
O=C(O)C1CCN(c2cc(OC(F)(F)F)ccc2CN2CCCC23CCN(C(=O)OC(C(F)(F)F)C(F)(F)F)CC3)CC1 [Example 248],–,# (# is <25%),–,–,–,# (# is <25%),–,–,–,< 100 nM,< 25%,> 75%,< 25%,### (### is ≥75%)

# Further lines, with some results ahead:
IC50 (MAGL [1]; [8]),ABHD6 % Inh 5 mg/kg (mouse) (ABHD6 [2]),inhibition at 1 µM (FAAH [3]; mouse proteome),inhibition at 1 µM (MAGL [4]; mouse proteome),inhibition at 1 µM (ABHD6 [5]; mouse proteome),FAAH % Inh 5 mg/kg (mouse) (FAAH [6]),IC50 (FAAH [3]; [9]),IC50 (MAGL [4]; [9]),IC50 (ABHD6 [5]; [9]),IC50 (MAGL [1]; human),inhibition at 1 µM (FAAH [3]; mouse),inhibition at 1 µM (MAGL [4]; mouse),inhibition at 1 µM (ABHD6 [5]; mouse),Compound,MAGL % Inh 5 mg/kg (mouse) (MAGL [7])
< 100 nM,# (# is <25%),< 25%,> 75%,25 to 75%,# (# is <25%),> 1000 nM,< 100 nM,> 1000 nM,–,–,–,–,O=C(O)C1CCN(c2cc(C(F)(F)F)ccc2CN2CCCC23CCN(C(=O)OC(C(F)(F)F)C(F)(F)F)CC3)C1 (centres unmarked) [Example 199],## (## is equal to or greater than 25% but less than 75%)
< 100 nM,# (# is <25%),< 25%,> 75%,< 25%,# (# is <25%),–,–,–,–,–,–,–,O=C(O)[C@H]1CCCN(c2cc(C(F)(F)F)ccc2CN2CCCC23CCN(C(=O)OC(C(F)(F)F)C(F)(F)F)CC3)C1 [Example 217],### (### is ≥75%)
< 100 nM,# (# is <25%),< 25%,> 75%,25 to 75%,# (# is <25%),–,–,–,–,–,–,–,CC1(C(=O)O)CCCN(c2cc(C(F)(F)F)ccc2CN2CCC3(CCN(C(=O)OC(C(F)(F)F)C(F)(F)F)CC3)C2)C1 (centres unmarked) [Example 216],## (## is equal to or greater than 25% but less than 75%)
–,# (# is <25%),–,–,–,# (# is <25%),–,–,–,< 100 nM,< 25%,> 75%,< 25%,CC1(C(=O)O)CN(c2cc(C(F)(F)F)ccc2CN2CCC3(CCN(C(=O)OC(C(F)(F)F)C(F)(F)F)CC3)C2)CCO1 (centres unmarked) [Example 256],# (# is <25%)
